Laboratory results: PMC11876601 (Molecular Systems Biology, 2025)
Several values for one entry are separate records, joined by “and”; a condition that tells them apart may be missing. Identical values can stand only once. Like-named read-outs stand apart in the source and are kept apart here. Each block holds one molecule with its values, some of them ahead of it.

What was measured:
[1] = test system: PANC-1 cells; assay: Cell proliferation assay, GEM + ATR inhibitor (Incucyte confluence, 72 h); details: for EC50: Homo sapiens; for Response: ATRi 0 nM (GEM), R1-R3;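 on EC50: in combination experiments GEM is titrated while ATRi is held at a fixed sub-EC50 dose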;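 on all read-outs here: PANC-1 confluence at 72 h taken as raw values, not normalized to starting confluence, with each experiment run in triplicate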
Experimental: (§1) Cells were seeded at 5000 cells/well into 96-well flat bottom plates (Eppendorf) and allowed to attach overnight. […] Cells were incubated for 72 h at 37 °C and 5% CO2. Cell confluence readouts at 72 h were either normalized to their initial confluence using the Incucyte software (AsPC-1) or used without prior normalization (all others). […] Each experiment was performed in triplicates, the data was plotted as mean ± standard deviation (s.d.).

[2] = test system: Suit2-07 cells; assay: as above; type: cell-based, human; details: for EC50: Homo sapiens; for Response: R1; for Curve top: plateau of fitted curve, ratio drug/vehicle confluence;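 on all read-outs here: Suit2-07 cells grown in 96-well plates at 37 °C, 5% CO2, raw 72 h confluence taken without normalizing to starting confluence, each experiment done in triplicate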
Experimental: as §1

[3] = test system: MiaPaCa-2; assay: cells; set-up: ATPlite luminescence viability of PDAC cell lines, 11-dose single-agent curves, 4-parameter fit; details: Homo sapiens, MIA PaCa-2, 72 h, read-out: EC50 [nM]
Outline: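 cells (1000 to 5000 per well) seeded 24 h before drug addition in a combination screen at 0.2% final DMSO. Controls were drug-free wells (negative) and 5 µM staurosporine (positive).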

[4] = PANC-1, experiment GEM (GEM alone), plateau of fitted curve, ratio drug/vehicle confluence

SMILES: Nc1ccn([C@@H]2O[C@H](CO)[C@@H](O)C2(F)F)c(=O)n1 [GEM, Gemcitabine]
- EC50 ([1]; PANC-1, PANC-1, experiment GEM (GEM alone, in the series of the ATRi named in column Drug), replicates R1-R3): 5.84e-08 M
- EC50 ([1]; PANC-1, read-out: pEC50, PANC-1 (converted), experiment GEM (GEM alone, in the series of the ATRi named in column Drug), -log10 of EC50 [M]): 5.89e-08 M
- Response ([1]; PANC-1, GEM 1 nM): 55.73 and 93.02 and 87.94
- Response ([1]; PANC-1, GEM 3 nM): 54.62 and 89.30 and 88.72
- Response ([1]; PANC-1, GEM 10 nM): 65.10 and 93.01 and 80.93
- Response ([1]; PANC-1, GEM 30 nM): 43.73 and 76.60 and 68.58
- Response ([1]; PANC-1, GEM 300 nM): 45.56 and 60.97 and 63.22
- Response ([1]; PANC-1, GEM 1000 nM): 38.26 and 66.03 and 59.27
- Response ([1]; PANC-1, GEM 3000 nM): 35.94 and 56.55 and 61.30
- Curve bottom [1, 4]: 1.02 and 1.05 and 1.06 and 0.91 and 1.00 and 0.98
- Curve top [1, 4]: 0.74
- EC50 ([2]; 72 h, Suit2-07, experiment GEM (GEM alone, in the series of the ATRi named in column Drug), -log10 of EC50 [M], read-out: pEC50 (converted)): 8.32e-09 M
- EC50 ([2]; 72 h, Suit2-07, experiment GEM (GEM alone, in the series of the ATRi named in column Drug), mean (one replicate), read-out: EC50 mean): 8.26e-09 M
- EC50 ([2]; 72 h, Suit2-07, experiment GEM (GEM alone, in the series of the ATRi named in column Drug), replicate R1, read-out: EC50): 8.26e-09 M
- EC50 ([2]; Suit2-07, experiment GEM (GEM alone, in the series of the ATRi named in column Drug), -log10 of EC50 [M], read-out: pEC50 (converted)): 1.05e-08 M
- Response ([2]; Suit2-07, GEM 1 nM, ATRi 0 nM (GEM), in % (unit assumed)): 97.46
- Response ([2]; Suit2-07, GEM 3 nM, ATRi 0 nM (GEM), in % (unit assumed)): 93.41
- Response ([2]; Suit2-07, GEM 10 nM, ATRi 0 nM (GEM), in % (unit assumed)): 45.15
- Response ([2]; Suit2-07, GEM 30 nM, ATRi 0 nM (GEM), in % (unit assumed)): 20.11
- Response ([2]; Suit2-07, GEM 3000 nM, ATRi 0 nM (GEM), in % (unit assumed)): 10.86
- Response ([2]; Suit2-07, experiment GEM, GEM 1 nM, ATRi 0 nM, in % (unit assumed)): 98.60 and 97.96 and 97.60
- Response ([2]; Suit2-07, experiment GEM, GEM 3 nM, ATRi 0 nM, in % (unit assumed)): 96.04 and 96.69 and 98.44
- Response ([2]; Suit2-07, experiment GEM, GEM 10 nM, ATRi 0 nM, in % (unit assumed)): 49.03 and 57.12 and 55.81
- Response ([2]; Suit2-07, experiment GEM, GEM 30 nM, ATRi 0 nM, in % (unit assumed)): 23.93 and 25.24 and 25.44
- Response ([2]; Suit2-07, experiment GEM, GEM 100 nM, ATRi 0 nM, in % (unit assumed)): 15.01
- Response ([2]; Suit2-07, experiment GEM, GEM 300 nM, ATRi 0 nM, in % (unit assumed)): 14.46
- Response ([2]; Suit2-07, experiment GEM, GEM 1000 nM, ATRi 0 nM, in % (unit assumed)): 10.89
- Response ([2]; Suit2-07, experiment GEM, GEM 3000 nM, ATRi 0 nM, in % (unit assumed)): 10.34

- EC50 [3]: 82.2 nM
SMILES: CCN1CCN(Cc2ccc(Nc3ncc(F)c(-c4cc(F)c5nc(C)n(C(C)C)c5c4)n3)nc2)CC1 [Abemaciclib]

- EC50 ([1]; PANC-1, 72 h, read-out: EC50 mean [nM], PANC-1, experiment ATRi (ATR inhibitor alone), mean of replicates): 1.05e-05 M
- EC50 ([1]; PANC-1, read-out: EC50 mean [nM], PANC-1, experiment ATRi (ATR inhibitor alone), mean of replicates): 1.05e-05 M
- EC50 ([1]; PANC-1, read-out: EC50 mean [nM], PANC-1, experiment GEM+ATRi_dose1, mean of replicates): 1.2e-08 M
- EC50 ([1]; PANC-1, read-out: EC50 mean [nM], PANC-1, experiment GEM+ATRi_dose2, mean of replicates): 2.2e-08 M
- EC50 ([1]; PANC-1, read-out: EC50 mean [nM], PANC-1, experiment GEM+ATRi_dose3, mean of replicates): 1.45e-08 M
SMILES: C[C@@H]1COCCN1c1cc(C2([S@](C)(=N)=O)CC2)nc(-c2cc[nH]c3nccc2-3)n1 [Ceralasertib]
- Curve top ([1]; PANC-1, experiment GEM+ATRi_dose1, plateau of fitted curve, ratio drug/vehicle confluence): 0.75 and 0.55 and 0.69
- Curve top ([1]; PANC-1, experiment GEM+ATRi_dose2, plateau of fitted curve, ratio drug/vehicle confluence): 0.69 and 0.59 and 0.62
- Curve top ([1]; PANC-1, experiment GEM+ATRi_dose3, plateau of fitted curve, ratio drug/vehicle confluence): 0.55 and 0.43 and 0.50
- EC50 ([2]; 72 h, Suit2-07, experiment ATRi (ATR inhibitor alone), -log10 of EC50 [M], read-out: pEC50 (converted)): 3.24e-06 M
- EC50 ([2]; 72 h, Suit2-07, experiment ATRi (ATR inhibitor alone), mean (one replicate), read-out: EC50 mean): 3.24e-06 M
- EC50 ([2]; 72 h, Suit2-07, experiment ATRi (ATR inhibitor alone), replicate R1, read-out: EC50): 3.24e-06 M
- Response ([2]; Suit2-07, GEM+ATRi_dose1, GEM 0 nM + ATRi 10 nM, in % (unit assumed)): 99.44
- Response ([2]; Suit2-07, GEM+ATRi_dose1, GEM 1 nM + ATRi 10 nM, in % (unit assumed)): 97.06
- Response ([2]; Suit2-07, GEM+ATRi_dose1, GEM 3 nM + ATRi 10 nM, in % (unit assumed)): 98.33
- Response ([2]; Suit2-07, GEM+ATRi_dose1, GEM 10 nM + ATRi 10 nM, in % (unit assumed)): 33.90
- Response ([2]; Suit2-07, GEM+ATRi_dose1, GEM 30 nM + ATRi 10 nM, in % (unit assumed)): 18.26
- Response ([2]; Suit2-07, GEM+ATRi_dose1, GEM 100 nM + ATRi 10 nM, in % (unit assumed)): 14.84
- Response ([2]; Suit2-07, GEM+ATRi_dose1, GEM 300 nM + ATRi 10 nM, in % (unit assumed)): 14.60
- Response ([2]; Suit2-07, GEM+ATRi_dose1, GEM 1000 nM + ATRi 10 nM, in % (unit assumed)): 10.84
- Response ([2]; Suit2-07, GEM+ATRi_dose1, GEM 3000 nM + ATRi 10 nM, in % (unit assumed)): 13.52
- Response ([2]; Suit2-07, GEM+ATRi_dose2, GEM 0 nM + ATRi 3 nM, in % (unit assumed)): 99.06
- Response ([2]; Suit2-07, GEM+ATRi_dose2, GEM 1 nM + ATRi 3 nM, in % (unit assumed)): 97.53
- Response ([2]; Suit2-07, GEM+ATRi_dose2, GEM 3 nM + ATRi 3 nM, in % (unit assumed)): 42.89
- Response ([2]; Suit2-07, GEM+ATRi_dose2, GEM 10 nM + ATRi 3 nM, in % (unit assumed)): 18.83
- Response ([2]; Suit2-07, GEM+ATRi_dose2, GEM 30 nM + ATRi 3 nM, in % (unit assumed)): 15.03
- Response ([2]; Suit2-07, GEM+ATRi_dose2, GEM 100 nM + ATRi 3 nM, in % (unit assumed)): 14.03
- Response ([2]; Suit2-07, GEM+ATRi_dose2, GEM 300 nM + ATRi 3 nM, in % (unit assumed)): 10.54
- Response ([2]; Suit2-07, GEM+ATRi_dose2, GEM 1000 nM + ATRi 3 nM, in % (unit assumed)): 10.54
- Response ([2]; Suit2-07, GEM+ATRi_dose2, GEM 3000 nM + ATRi 3 nM, in % (unit assumed)): 14.48
- Response ([2]; Suit2-07, GEM+ATRi_dose3, GEM 0 nM + ATRi 30 nM, in % (unit assumed)): 99.04
- Response ([2]; Suit2-07, GEM+ATRi_dose3, GEM 1 nM + ATRi 30 nM, in % (unit assumed)): 98.92
- Response ([2]; Suit2-07, GEM+ATRi_dose3, GEM 3 nM + ATRi 30 nM, in % (unit assumed)): 74.44
- Response ([2]; Suit2-07, GEM+ATRi_dose3, GEM 10 nM + ATRi 30 nM, in % (unit assumed)): 18.78
- Response ([2]; Suit2-07, GEM+ATRi_dose3, GEM 30 nM + ATRi 30 nM): 15.93
- Response ([2]; Suit2-07, GEM+ATRi_dose3, GEM 100 nM + ATRi 30 nM, in % (unit assumed)): 13.11
- Response ([2]; Suit2-07, GEM+ATRi_dose3, GEM 300 nM + ATRi 30 nM, in % (unit assumed)): 12.75
- Response ([2]; Suit2-07, GEM+ATRi_dose3, GEM 1000 nM + ATRi 30 nM, in % (unit assumed)): 9.23
- Response ([2]; Suit2-07, GEM+ATRi_dose3, GEM 3000 nM + ATRi 30 nM, in % (unit assumed)): 13.00
- Response ([2]; Suit2-07, experiment ATRi, ATRi 3 nM, GEM 0 nM, in % (unit assumed)): 99.07
- Response ([2]; Suit2-07, experiment ATRi, ATRi 10 nM, GEM 0 nM, in % (unit assumed)): 99.08
- Response ([2]; Suit2-07, experiment ATRi, ATRi 30 nM, GEM 0 nM, in % (unit assumed)): 98.55
- Response ([2]; Suit2-07, experiment ATRi, ATRi 100 nM, GEM 0 nM, in % (unit assumed)): 98.02
- Response ([2]; Suit2-07, experiment ATRi, ATRi 300 nM, GEM 0 nM, in % (unit assumed)): 95.91
- Response ([2]; Suit2-07, experiment ATRi, ATRi 1000 nM, GEM 0 nM, in % (unit assumed)): 89.97
- Response ([2]; Suit2-07, experiment ATRi, ATRi 3000 nM, GEM 0 nM, in % (unit assumed)): 57.79
- Response ([2]; Suit2-07, experiment ATRi, ATRi 10000 nM, GEM 0 nM, in % (unit assumed)): 20.77
- Curve top ([2]; Suit2-07, experiment GEM+ATRi_dose1): 0.15
- Curve top ([2]; Suit2-07, experiment GEM+ATRi_dose2): 0.14
- Curve top ([2]; Suit2-07, experiment GEM+ATRi_dose3): 0.13
